Measurements taken from article PMC12155470, “Novel Tetraene Macrodiolides Are Effective Inducers of Mitochondrial Apoptosis in Jurkat Cells” (International Journal of Molecular Sciences, 2025).
Like-named read-outs stand apart in the source and are kept apart here.

Assays:
[1] = test system: Jurkat, K562, U937, HEK293, and HeLa cell cultures; conditions: cited from earlier work
Jurkat cells [2] = test: Cytochrome C assay (flow cytometry); type: cell-based, Human; conditions: compound at CC50 concentration, 6 h (Figure 4; method says four hours)
Source text: The quantification of cytochrome c release from the mitochondria in apoptotic cells was used to detect the mitochondrial pathway of apoptosis in the cells by flow cytometry. This study employed a direct labeling method that utilized an anti-cytochrome cFITC antibody, an anti-IgG1-FITC isotype control, and optimized fixation, permeabilization, and blocking buffers to detect cytochrome c by flow cytometry (Luminex®, Austin, TX, USA). […] The Jurkat cells were exposed to test substances at concentrations corresponding to their 24-h CC50 in these cells for a period of four hours. Thereafter, analysis by flow cytometry (NovoCyte Flow Cytometry™ Agilent, San Diego, CA, USA) was conducted. The acquired data were processed using NovoExpress® software (version 1.6.2) (ACEA (Agilent, Santa Clara, CA, USA)).
Figure 4 Detection of cytochrome c in Jurkat cells stained with a FlowCellect Cytochrome c Kit. The control compound, carbonyl cyanide m-chlorophenylhydrazone (CCCP), was administered at a concentration equal to its CC50 value. Compound 9d was added to the sample cells at a CC50 concentration (see the table of cell viability). The cells were incubated for 6 h. We compared the numerical values to determine the reliability of the differences observed between the control sample and the samples treated with the synthesized substances. […]

Jurkat = test: In vitro cytotoxic activity, 7-AAD flow cytometry, Jurkat; type: cell-based, Human; conditions: Homo sapiens, Jurkat, 24 h, 24 h incubation, mean ± SD, triplicate
Source text: (§1) The investigation focused on the assessment of the synthesized compounds’ toxicities, utilizing a panel of six diverse cell lines. The selection of cells was based on the specific features of their metabolism, namely, Jurkat, K562, U937, and HL60 cells are suspension cultures of oncohematologic origin, and HEK293 is a conditionally normal line transformed by adenovirus and often used as control cells along with fibroblasts. The normal fibroblast line (Wi-38) utilized in the experiment was diploid and was obtained from the lung tissue of an aborted fetus. The total cytotoxic activity of 16 compounds was studied using flow cytometry.
(§2) Human cancer cell lines, including Jurkat, K562, U937, HL60, and fibroblasts (Wi-38), were obtained from the European Authentic Cell Culture Collection and further cultured according to established standard protocols using sterile methods. The cells were cultivated in RPMI 1640 (for Jurkat and K562) and DMEM (for Wi-38 and HEK293) media (Gibco, Billings, MT, USA), with the addition of […] glutamine, 10% FBS (Sigma, Kanagawa, Japan), and 100 U/mL penicillin–streptomycin (Sigma). All cell types were cultivated in a humidified atmosphere containing 5% CO₂ at a temperature of 37 °C. Subculturing was performed at two- to three-day intervals. The cells were subsequently seeded into 24-well plates at a density of 5 × 10^4 cells per well and incubated overnight. Subsequent subculturing was then performed at two-day intervals, with a seeding density of 1 × 10^5 cells per 24-well plate, using RPMI medium with 10% FBS [49].
(§3) The dissolution of the compounds tested was initially performed in dimethyl sulfoxide (DMSO) with an initial solution of 100 mM in 10% DMSO. Subsequently, the solution was diluted in a complete culture medium, namely, Dulbecco’s medium, modified Eagle’s medium (DMEM), or Roswell Park Memorial Institute medium (RPMI). Substances were added at concentrations of 10, 1, 100, 10, 1, and 0.1 μM on the day after seeding and incubated for 24 h. Following this, the cells were washed with a phosphate-buffered saline (PBS) solution and stained with 7AAD dye, as per the manufacturer’s protocol for flow cytometry. The CC50 value, which characterizes the parameters of toxicity (i.e., the concentration of the compound required for 50% inhibition of cell viability in vitro), was calculated. logC versus % inhibition was plotted, and statistical data processing was performed using Excel and GraphPad Prism v.8.0.2 (San Diego, CA, USA, 2019). The data obtained from three independent experiments were expressed as the mean of three measurements for each concentration, with the standard deviation indicated as well. These values were then relative to the control values (0.1% DMSO), which were taken as 100%.
(§4) 7-AAD (7-aminoactinomycin D) dye (eBioscience™, San Diego, CA, USA) was used to assess cell viability. Following incubation with the test compounds, the cells were harvested, washed with a phosphate–salt buffer (PBS), and subjected to centrifugation at 400× g for five minutes. The cell sediment was resuspended in 200 μL of staining buffer for flow cytometry (PBS without calcium and magnesium, 2.5% FBS) and stained with a 1 mM 7-AAD dye solution for 15 min in the dark at room temperature. Subsequently, all samples, including experimental and control groups, were analyzed using a BD FACSAria™ III Cell Sorter flow cytometer (Milpitas, CA, USA).

K562 = test: In vitro cytotoxic activity, 7-AAD flow cytometry, K562; type: cell-based, Human; conditions: Homo sapiens, K562, 24 h, 24 h incubation, mean ± SD, triplicate
Source text: as §1, §2, §3, §4

U937 = test: In vitro cytotoxic activity, 7-AAD flow cytometry, U937; type: cell-based, Human; conditions: Homo sapiens, U-937, 24 h, 24 h incubation, mean ± SD, triplicate
Source text: as §1, §2, §3, §4

HL60 = test: In vitro cytotoxic activity, 7-AAD flow cytometry, HL60; type: cell-based; conditions: Homo sapiens, HL-60, 24 h incubation, mean ± SD, triplicate
Source text: as §1, §2, §3, §4

[3] = In vitro cytotoxic activity, 7-AAD flow cytometry, Hek293; type: cell-based; conditions: human, HEK293 cells, conditionally normal line, 24 h incubation, mean ± SD
Source text: as §1, §2, §3, §4

[4] = In vitro cytotoxic activity, 7-AAD flow cytometry, normal fibroblasts; type: cell-based; conditions: human, Wi-38 normal lung fibroblasts, normal fibroblasts Wi-38, 24 h incubation, mean ± SD, read-out: Fibrobl. (CC50)
Source text: as §1, §2, §3, §4

Jurkat cells [5] = test: Mitodamage assay (MitoSense Red, Annexin V-CF488A, 7-AAD); type: cell-based, Human; conditions: compound at CC50 concentration, four hours, MitoSense Red
Protocol: To this end, MitoSense Red, a fluorescent dye that accumulates predominantly in mitochondria and responds to changes in membrane potential, was utilized. […] Two dyes commonly employed for detecting apoptosis in cells are annexin V and 7AAD. […] Therefore, the dissipation of mitochondrial membrane potential and the associated apoptosis process in Jurkat tumor cells were analyzed in response to exposure to synthesized macrodiolides. MitoSense Red, Annexin V-CF488A, and 7-AAD were used as dyes for this analysis (see Figure 3). A flow cytometry kit (FlowCellect™ MitoDamage Kit from Millipore, Hayward, CA USA) was utilized, as it facilitates a multiparametric evaluation of three markers of cell health. These markers include changes in mitochondrial potential (early apoptosis and cell stress), phosphatidylserine expression on the cell surface (late apoptosis), and membrane permeability (cell death). The method of the simultaneous detection of mitochondrial damage was performed according to the well-known technique.  Figure 3 Detection changes in mitochondrial membrane potential (ΔΨ) and coupled early and late apoptosis in Jurkat cells treated with compounds 9d, 8d, 7d, and 6d. Staurosporine and carbonyl cyanide-m-chlorophenylhydrazone were utilized as control compounds. The addition of all the tested compounds was executed at the CC50 concentration (refer to the provided table for the cytotoxicities of the synthesized compounds). The staining of cells was conducted using MitoSense Red, Annexin V-CF488A, and 7-AAD. The incubation period lasted for a duration of four hours. The presence of three *** (p < 0.001) and two asterisks ** (p < 0.005) indicates the significance of the observed differences between the values obtained in the control sample and the samples treated with the synthesized substances (comparison was performed by one-way ANOVA). All experiments were performed in triplicate.

In the case of `O=C1CCCCCC(=O)OCCCCCC/C=C\CC/C=C\CCCCCCO1`, the CC50 ([1]; K562, HEK293, and HeLa) is listed as 60 to 150 nM and the CC50 ([1]; individual cell cultures Jurkat, U937) is listed as 10 to 20 nM.
With `N#CC(C#N)=NNc1cccc(Cl)c1` [CCCP, carbonyl cyanide-m-chlorophenylhydrazone, reference compound] the “cells releasing cytochrome c into the cytoplasm (Cytochrome loss %)” value (Jurkat cells [2]) was 79.35%.
For `O=C1CC/C=C\CC/C=C\CCC(=O)OCCC/C=C\CC/C=C\CCCO1` [Compound 6a], the CC50 (Jurkat) was 28.3 ± 2.65 nM, the CC50 (K562) was 24.8 ± 2.37 nM and the CC50 (U937) was 23.1 ± 2.11 nM. The CC50 (HL60) was 19.8 ± 1.81 nM, the CC50 at 24 h [3] was 52.3 ± 5.17 nM and the CC50 at 24 h [4] was 76.2 ± 7.62 nM.
For `O=C1CCC/C=C\CC/C=C\CCCC(=O)OCCC/C=C\CC/C=C\CCCO1` [Compound 6b], the CC50 (Jurkat) was 21.2 ± 1.97 nM, the CC50 (K562) was 21.5 ± 2.01 nM and the CC50 (U937) was 22.4 ± 2.24 nM. The CC50 (HL60) was 20.4 ± 2.1 nM, the CC50 at 24 h [3] was 46.2 ± 3.75 nM and the CC50 at 24 h [4] was 61.9 ± 6.27 nM.
Compound `O=C1CCCC/C=C\CC/C=C\CCCCC(=O)OCCC/C=C\CC/C=C\CCCO1` [Compound 6c] has a CC50 (Jurkat) of 22.1 ± 2.14 nM, a CC50 (K562) of 19.7 ± 1.63 nM and a CC50 (U937) of 19.2 ± 1.87 nM. It also gave a CC50 (HL60) of 20.1 ± 1.95 nM, a CC50 at 24 h [3] of 42.8 ± 4.39 nM and a CC50 at 24 h [4] of 58.9 ± 5.81 nM.
For `O=C1CCCCC/C=C\CC/C=C\CCCCCC(=O)OCCC/C=C\CC/C=C\CCCO1` [Compound 6d], the CC50 (Jurkat) was 18.5 ± 1.78 nM, the CC50 (K562) was 16.9 ± 1.88 nM and the CC50 (U937) was 15.2 ± 1.56 nM. For the same compound, the CC50 (HL60) was 15.7 ± 1.43 nM, the CC50 at 24 h [3] was 44.3 ± 4.21 nM and the CC50 at 24 h [4] was 59.4 ± 5.46 nM. For the same compound, the “Jurkat cells with reduced mitochondrial membrane potential (Δψ dissipation)” value (Jurkat cells [5]) was 58.99%.
With `O=C1CC/C=C\CC/C=C\CCC(=O)OCCCC/C=C\CC/C=C\CCCCO1` [Compound 7a] the CC50 (Jurkat) was 26.4 ± 2.46 nM, the CC50 (K562) was 23.6 ± 2.14 nM and the CC50 (U937) was 22.2 ± 2.34 nM. For the same compound, the CC50 (HL60) was 20.4 ± 2.07 nM, the CC50 at 24 h [3] was 49.9 ± 4.83 nM and the CC50 at 24 h [4] was 67.2 ± 6.39 nM.
For `O=C1CCC/C=C\CC/C=C\CCCC(=O)OCCCC/C=C\CC/C=C\CCCCO1` [Compound 7b], the CC50 (Jurkat) was 20.3 ± 2.04 nM, the CC50 (K562) was 18.1 ± 1.83 nM and the CC50 (U937) was 17.4 ± 1.71 nM. For the same compound, the CC50 (HL60) was 18.2 ± 1.76 nM, the CC50 at 24 h [3] was 53.1 ± 4.96 nM and the CC50 at 24 h [4] was 62.6 ± 5.94 nM.
